Results on 17 compounds are retold here after patent US10287267B2, “Isoquinolin-3-yl carboxamides and preparation and use thereof” (Samumed, LLC, priority 2016, dated 2019).

pEC50: −log10 of the molar value.

Test [1] deals with recombinant DYRK1A kinase (Homo sapiens (Human), UniProt Q13627). In words: DYRK1A kinase assay (Ser/Thr 18 peptide Z-lyte FRET).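 Note: Read-out is the coumarin to fluorescein emission ratio, referenced to unphosphorylated (0%) and phosphorylated (100%) Ser/Thr 18 peptide controls, values from dose-response curves by non-linear regression.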 In kind it is biochemical. The note with it: 30 μM ATP, 1 h room temperature.
In test [2] the test system is α-smooth muscle actin (αSMA) positive LL29 cells. As to the kind of experiment: Inhibition of fibrotic process: αSMA in TGF-β1 treated primary human fibroblasts from IPF patients.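 For all read-outs here: controls were TGF-β1 stimulated wells with DMSO vehicle (positive) and cells given DMSO alone (negative), cultured in F12 medium with 1% fetal bovine serum.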 In kind it is cell-based. Conditions: Homo sapiens, Fibroblast; for pEC50: 96 h, Table 8, LL29 fibroblasts from IPF patients, TGF-β1 20 ng/mL, 4 days, dose-response 10 μM to 0.94 nM; for inhibition at 10 µM: read-out: percent value in parentheses beside EC50 >10 μM.

For test [3], the system named is Wnt pathway (Sp5-Luc reporter, TCF/LEF binding sites) in SW480 colon carcinoma cells. As to the kind of experiment: Screening assay for Wnt activity: Sp5-Luc reporter gene assay.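 For all read-outs here: firefly luciferase luminescence read in stably transduced SW480 cells carrying the Sp5 promoter reporter with eight TCF/LEF sites, compounds given in 0.1% DMSO final.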 The class given is cell-based, human. Conditions: Homo sapiens; for pEC50: Sp5-Luc reporter, SW480 cells, 36 to 48 hours. Background: A reporter such as luciferase makes a cellular process visible.
Protocol: The screening assay for Wnt activity is described as follows.
Following incubation, 15 μl of BriteLite Plus luminescence reagent (Perkin Elmer) was added to each well of the 384-well assay plates. The plates were placed on an orbital shaker for 2 min and then luminescence was quantified using the Envision (Perkin Elmer) plate reader.

The next test concerns the target recombinant GSK3β kinase (Homo sapiens (Human), UniProt P49841). As to the kind of experiment: GSK3β kinase assay (Ser/Thr 09 peptide Z-lyte FRET).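 Note: kinase activity read as coumarin to fluorescein emission ratio, 11-point threefold dilutions from 10 µM to 0.0003 µM in duplicate, unphosphorylated and phosphorylated peptide as 0% and 100% controls.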 In kind it is biochemical. The note with it: 46 μM ATP, 1 h room temperature.
Test [4] concerns Tau phosphorylation at Ser396 (pSer396). In words: Tau phosphorylation assay (pSer396 ELISA / western blot) in SH-SY5Y cells.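 Note: EC50 for reduction of Tau pSer396 in lysed cells, measured by colorimetric ELISA or chemiluminescent western blot, both using the same pSer396 antibody.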 In kind it is cell-based, human. Conditions: Homo sapiens; SH-SY5Y cells, overnight (16-18 h) exposure; read-out: pSer396 Tau EC50. For orientation: ELISA stands for enzyme-linked immunosorbent assay.
The test system of test [5] is SW480 colon carcinoma cells. As to the kind of experiment: Cell viability assay (CellTiter-Glo). In kind it is cell-based, human. The note with it: Homo sapiens; for pEC50: 96 h, SW480 cells, CellTiter-Glo, four days incubation; for inhibition at 10 µM: SW480, read-out: percent inhibition at 10 μM.
In another test the test system is IL-6. As to the kind of experiment: IL-6 inhibition in LPS-stimulated human peripheral blood mononuclear cells (HTRF).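 For all read-outs here: IL-6 detected by HTRF with an XL665- and Cryptate-labelled anti-IL-6 antibody pair, samples run in duplicate, EC50 obtained from a four-parameter Levenberg-Marquardt curve fit.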 In kind it is cell-based. The note with it: Homo sapiens, PBMC; for pEC50: Table 9, huPBMCs, LPS 50 ng/mL, 22 hours, dose-response starting from 10 μM; for inhibition at 10 µM: read-out: percent value in parentheses beside EC50 >10 μM. For orientation: TR-FRET usually uses a lanthanide donor and a delayed reading to cut background.

Chain of recombinant GSK3β kinase (P49841 whole entry): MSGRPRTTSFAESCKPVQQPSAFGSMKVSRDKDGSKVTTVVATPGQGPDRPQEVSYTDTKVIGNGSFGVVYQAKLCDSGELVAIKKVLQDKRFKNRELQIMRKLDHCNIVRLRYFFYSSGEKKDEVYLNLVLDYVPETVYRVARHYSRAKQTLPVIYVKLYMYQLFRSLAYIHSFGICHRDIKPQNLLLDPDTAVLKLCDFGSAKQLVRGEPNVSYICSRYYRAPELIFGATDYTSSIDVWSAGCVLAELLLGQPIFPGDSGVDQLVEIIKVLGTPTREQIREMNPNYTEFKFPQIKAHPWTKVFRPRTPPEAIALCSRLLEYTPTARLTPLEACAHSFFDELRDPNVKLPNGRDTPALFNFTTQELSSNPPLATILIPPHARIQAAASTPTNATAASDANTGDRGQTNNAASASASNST
Protocol for IL-6: After 22 hour incubation, a mixture of anti-IL6 XL665 and anti-IL-6 Cryptate diluted in reconstitution buffer (Catalog #62IL6PEC, Cisbio Inc., Bedford, Mass.) was added to each well. […] All samples were processed in duplicate. […] EC50 was determined using software generated by Dotmatics Limited (Windhill Bishops Stortford Herts, UK) using the Levenberg-Marquardt 4 parameter fitting procedure with finite different gradients.

Usually pEC50 stands for −log10 of the EC50, conventionally taken in molar units. For `CN(CC(=O)Nc1cc2cc(-c3cnn(C)c3)ccc2cn1)C1CCC1` [Compound 302, 2-(Cyclobutyl(methyl)amino)-N-(6-(1-methyl-1H-pyrazol-4-yl)isoquinolin-3-yl)acetamide], the pEC50 in test [1] is 8.11; in test [2] it was 6.05; in test [3] it was 5.44; at recombinant GSK3β kinase, 7.42; in test [4] it was 6.20; in test [5] it was less than 5.00. The pEC50 in the test with IL-6 was 5.11. For the same compound, the inhibition at 10 µM in test [5] was found to be 34.9%.
Turning to `Cn1cc(-c2ccc3cnc(NC(=O)CN4CCC(F)CC4)cc3c2)cn1` [Compound 116, 2-(4-Fluoropiperidin-1-yl)-N-(6-(1-methyl-1H-pyrazol-4-yl)isoquinolin-3-yl)acetamide], the pEC50 in test [1] was 8.37; in test [2] it was 6.08; in test [3] it was 5.15; on recombinant GSK3β kinase, 7.62; in test [4], 6.06; in test [5], 5.19. Besides, the pEC50 with IL-6 was 5.87.
With `Cc1ncc(-c2ccc3cnc(NC(=O)CN4CCN(C)CC4)cc3c2)s1` [Compound 995, 2-(4-Methylpiperazin-1-yl)-N-(6-(2-methylthiazol-5-yl)isoquinolin-3-yl) acetamide], the pEC50 in test [1] was 7.88; in test [2], 5.90; in test [3], less than 5.00; on recombinant GSK3β kinase, 6.75; in test [4], 5.62; in test [5], less than 5.00. This compound also had a pEC50 in the test on IL-6 of 5.05. The inhibition at 10 µM stood at 43.8% in test [3] (SW480, read-out: percent inhibition at 10 μM) and 47.6% in test [5].
On to `CC1CCN(CC(=O)Nc2cc3cc(-c4cnn(C)c4)ccc3cn2)CC1` [Compound 293, N-(6-(1-Methyl-1H-pyrazol-4-yl)isoquinolin-3-yl)-2-(4-methylpiperidin-1-yl)acetamide], for which the pEC50 in test [1] was 8.30; in test [2] it was 5.11; in test [3] it was 5.49; on recombinant GSK3β kinase, 7.23; in test [4], 6.18; in test [5], 5.54. The pEC50 in the test with IL-6 is 5.93.
`Cn1cc(-c2ccc3cnc(NC(=O)C4CCN(Cc5ncccn5)CC4)cc3c2)cn1` [Compound 1003, N-(6-(1-Methyl-1H-pyrazol-4-yl)isoquinolin-3-yl)-1-(pyrimidin-2-ylmethyl)piperidine-4-carboxamide]: the pEC50 in test [1] is 8.68; in test [2], 7.31; in test [3], 5.88; at recombinant GSK3β kinase, 7.37; in test [4] it was 6.14; in test [5], 6.09. Also, the pEC50 in the test on IL-6 was 5.94.
As to `O=C(CN1CCCC1)Nc1cc2cc(-c3cnn4c3CN(CCF)CC4)ccc2cn1` [Compound 999, N-(6-(5-(2-Fluoroethyl)-4,5,6,7-tetrahydropyrazolo[1,5-a]pyrazin-3-yl)isoquinolin-3-yl)-2-(pyrrolidin-1-yl)acetamide], the pEC50 in test [1] is 7.68; in test [2], 6.11; in test [3] it was 5.51; on recombinant GSK3β kinase, 7.07; in test [4], 6.18; in test [5], 5.12. The pEC50 in the test on IL-6 was less than 5.00. Further, the inhibition at 10 µM in the test on IL-6 was 30.3%.
In the case of `Cn1cc(-c2ccc3cnc(NC(=O)C4CCN(S(=O)(=O)c5ccccc5)CC4)cc3c2)cn1` [Compound 964, N-(6-(1-Methyl-1H-pyrazol-4-yl)isoquinolin-3-yl)-1-(phenylsulfonyl) piperidine-4-carboxamide], the pEC50 was 8.28 in test [1]; less than 5.00 in test [2]; 5.84 in test [3]; 6.99 on recombinant GSK3β kinase; 6.24 in test [4]; 5.42 in test [5]. The compound further showed a pEC50 in the test on IL-6 of less than 5.00. The figures for the inhibition at 10 µM (in test [2]; with IL-6) were 19.7% and 6.8%, respectively.
Consider `CC(C)CN1CCC(F)(C(=O)Nc2cc3cc(-c4cnn(C)c4)ccc3cn2)CC1` [Compound 96, 4-Fluoro-1-isobutyl-N-(6-(1-methyl-1H-pyrazol-4-yl)isoquinolin-3-yl) piperidine-4-carboxamide], for which the pEC50 in test [1] is 8.15; in test [2], 6.17; in test [3], less than 5.00; on recombinant GSK3β kinase, 6.46; in test [4], 5.70; in test [5], less than 5.00. In the test on IL-6, the pEC50 is less than 5.00. Also, the inhibition at 10 µM in the test on IL-6 is 5.8%.
As to `CN1CCC(C(=O)Nc2cc3cc(-c4cnsc4)ccc3cn2)CC1` [Compound 970, N-(6-(Isothiazol-4-yl)isoquinolin-3-yl)-1-methylpiperidine-4-carboxamide], the pEC50 in test [1] is 8.64; in test [2], 5.91; in test [3], 5.87; at recombinant GSK3β kinase it was 6.32; in test [4], 6.06; in test [5] it was 5.90. The compound also showed a pEC50 with IL-6 of 5.95.
As to `O=C(Nc1cc2cc(-c3cnn4c3CN(CCF)CC4)ccc2cn1)C1CCC(F)(F)CC1` [Compound 283, 4,4-Difluoro-N-(6-(5-(2-fluoroethyl)-4,5,6,7-tetrahydropyrazolo[1,5-a]pyrazin-3-yl)isoquinolin-3-yl)cyclohexane-1-carboxamide], the pEC50 in test [1] was 8.15; in test [2], 6.11; in test [3], 5.60; at recombinant GSK3β kinase, 7.21; in test [4], 6.39; in test [5], 5.51. This compound showed a pEC50 in the test on IL-6 of 5.26.
On to `Cc1ncc(-c2ccc3cnc(NC(=O)CN4CCCC4)cc3c2)s1` [Compound 993, N-(6-(2-Methylthiazol-5-yl)isoquinolin-3-yl)-2-(pyrrolidin-1-yl)acetamide], for which the pEC50 in test [1] is 7.83; in test [2], 5.83; in test [3], 5.10; at recombinant GSK3β kinase, 7.06; in test [4], 6.15; in test [5], 5.18. Also, the pEC50 in the test on IL-6 was 5.05.
Take `COCCN1CCC(C(=O)Nc2cc3cc(-c4cncn4C)ccc3cn2)CC1` [Compound 547, 1-(2-Methoxyethyl)-N-(6-(1-methyl-1H-imidazol-5-yl)isoquinolin-3-yl) piperidine-4-carboxamide]: the pEC50 is 8.47 in test [1]; 6.80 in test [2]; 5.65 in test [3]; 6.98 at recombinant GSK3β kinase; 6.42 in test [4]; 6.03 in test [5]. Also, the pEC50 in the test on IL-6 is 5.95.
In the case of `COC(=O)CN1CCC(C(=O)Nc2cc3cc(-c4cnn(C)c4)ccc3cn2)CC1` [Compound 334, Methyl 2-(4-((6-(1-methyl-1H-pyrazol-4-yl)isoquinolin-3-yl)carbamoyl)piperidin-1-yl)acetate], the pEC50 was 8.80 in test [1]; 7.20 in test [2]; 6.10 in test [3]; 7.33 on recombinant GSK3β kinase; 6.09 in test [4]; 5.13 in test [5]. The compound further gave a pEC50 in the test on IL-6 of 6.58.
For the compound `CCN(CC)CC(=O)Nc1cc2cc(-c3cnn(C)c3)ccc2cn1` [Compound 303, 2-(Diethylamino)-N-(6-(1-methyl-1H-pyrazol-4-yl)isoquinolin-3-yl) acetamide], the pEC50 in test [1] was 8.10; in test [2], 6.09; in test [3] it was 5.01; at recombinant GSK3β kinase, 7.05; in test [4], 6.11; in test [5], 5.11. In the test on IL-6, this compound had a pEC50 of 5.28.
For the compound `Cn1cc(-c2ccc3cnc(NC(=O)CN4C[C@H]5C[C@@H]4CO5)cc3c2)cn1` [Compound 346, 2-((1R,4R)-2-Oxa-5-azabicyclo[2.2.1]heptan-5-yl)-N-(6-(1-methyl-1H-pyrazol-4-yl)isoquinolin-3-yl)acetamide], the pEC50 was 8.00 in test [1]; 6.02 in test [2]; 5.36 in test [3]; 7.08 on recombinant GSK3β kinase; 5.74 in test [4]; 5.01 in test [5]. Moreover, the pEC50 in the test on IL-6 was 5.03.
`Cn1cc(-c2ccc3cnc(NC(=O)CN4CCN(CCF)CC4)cc3c2)cn1` [Compound 354, 2-(4-(2-Fluoroethyl)piperazin-1-yl)-N-(6-(1-methyl-1H-pyrazol-4-yl)isoquinolin-3-yl)acetamide]: the pEC50 in test [1] is 8.36; in test [2], 6.46; in test [3], 5.63; at recombinant GSK3β kinase it was 7.43; in test [4], 5.92; in test [5] it was 5.30. Moreover, in the test with IL-6, the pEC50 was 5.15.
In the case of `Cn1cc(-c2ccc3cnc(NC(=O)CN4CC5CC5C4)cc3c2)cn1` (centres unmarked) [Compound 291, 2-(3-Azabicyclo[3.1.0]hexan-3-yl)-N-(6-(1-methyl-1H-pyrazol-4-yl)isoquinolin-3-yl)acetamide], the pEC50 is 8.09 in test [1]; less than 5.00 in test [2]; 5.33 in test [3]; 7.37 on recombinant GSK3β kinase; 6.15 in test [4]; less than 5.00 in test [5]. This compound had a pEC50 with IL-6 of 5.01. Moreover, the inhibition at 10 µM is 49.6% in test [2] and 24.4% in test [5].
